Reference: article PMC6013238, “Development of novel NEMO-binding domain mimetics for inhibiting IKK/NF-κB activation” (PLoS Biology, 2018)
“Also recorded” adds a separate entry of the source.

Columns and labels:
[1] = target: T1, IKKβ/NEMO interaction (Mus musculus, UniProt O88522); assay: Co-immunoprecipitation of endogenous IKKβ and NEMO in Raw 264.7 cells; format: cell-based; settings: 100 μM mimetics, 8K-NBD 400 μM, 30 min
T1 construct: Co-immunoprecipitation of endogenous IKKβ and NEMO; endogenous in cells; host or cells: Raw 264.7
Protocol: (§1) To determine whether the novel NBD mimetics target the NEMO-IKKβ interaction in vivo, co-immunoprecipitations were performed using extracts from Raw 264.7 macrophages (Fig 5A). […] No interaction between NEMO and TNF receptor-associated factor 2 (TRAF2) or IκBα was observed under these conditions. […] The levels of phosphorylated IKK complex, IκBα, and p65 in response to TNF-α and LPS were all reduced by SR12343 (Fig 5D & 5E). […] However, there were no changes in the levels of phospho-c-Jun N-terminal kinase (p-JNK), p-p38MAPK, total JNK, and p38MAPK by treatment with SR12343 (150 μM) in response to TNF-α or LPS stimulation (Fig 5G & 5H). […]
(§2) (A) Co-IP analysis detecting the IKKβ/NEMO interaction. […] NEMO-binding products were then analyzed for levels of IKKβ, IKKα, TRAF2, and IκBα (negative control), and levels of NEMO were used as a loading control (left panel). […] The levels of IKKβ-FLAG binding to GST-NEMO were determined by western blot analysis with GST-NEMO used as a loading control. […] Cell lysates were analyzed for activity of the IKK/NF-κB signaling pathway including activation of IKK complex, IκBα, and p65. […] Cell lysates were harvested and analyzed for activation of noncanonical NF-κB signaling, the processing of p100 to p52. […]

[2] = tested on: phosphorylated IKK complex, IκBα and p65; assay: Western blot of IKK/NF-κB signaling in Raw 264.7 cells (TNF-α or LPS); format: cell-based, mouse; settings: 150 μM (S2A Fig: 0-150 μM), 30 min; TNF-α 10 ng/ml or LPS 1 μg/ml 10 min
Protocol: as §1, §2

[3] = tested on: noncanonical NF-κB pathway; assay: Noncanonical NF-κB pathway, anti-LTβR-stimulated Raw 264.7 cells (p100 to p52 processing); format: cell-based, mouse; settings: 100 μM, 30 min; anti-LTβR 8 h
Protocol: as §1, §2

[4] = tested on: Ercc1−/Δ mice; assay: Chronic treatment of Ercc1−/Δ mice (health span); format: in vivo, mouse; settings: preliminary experiments
From the text: Thus, these novel NBD mimetics could be used not only for treatment of inflammatory and degenerative diseases but also for aging.

T1 sequence (O88522 whole entry): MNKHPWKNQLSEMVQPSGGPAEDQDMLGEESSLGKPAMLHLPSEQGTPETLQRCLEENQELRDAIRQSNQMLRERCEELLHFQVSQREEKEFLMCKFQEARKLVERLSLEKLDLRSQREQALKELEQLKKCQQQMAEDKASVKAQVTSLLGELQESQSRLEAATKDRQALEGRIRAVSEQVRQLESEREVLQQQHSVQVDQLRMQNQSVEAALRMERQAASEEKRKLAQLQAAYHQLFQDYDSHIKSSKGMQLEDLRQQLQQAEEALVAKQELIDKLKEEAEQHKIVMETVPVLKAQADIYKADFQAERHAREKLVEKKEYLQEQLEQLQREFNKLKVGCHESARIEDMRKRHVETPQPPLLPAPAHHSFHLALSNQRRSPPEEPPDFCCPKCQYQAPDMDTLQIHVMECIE

O=C(CNc1ccc(Cl)cn1)NCCc1cccc(Br)c1 [SR12343]
IKKβ-NEMO interaction (Co-IP) [1]: most effective | Levels of phosphorylated IKK complex, IκBα and p65 [2]: inhibited phosphorylation of IKKα/β and p65 and prevented IκBα from degradation; also recorded: all reduced | Activation of noncanonical NF-κB pathway (p100 to p52 processing) [3]: no effect | Health span [4]: extended health span
